In general, EC50 refers to the concentration giving half of the maximal effect.

These results are taken from patent US20130189262A1, “IL-27 Antagonists for Treating Inflammatory Diseases” (Five Prime Therapeutics, Inc., priority 2011, published 2013).

For assay [1], the system named is primary human bronchial smooth muscle cells. The assay is described as follows: CXCL10 expression with combinations of TNF-α, IL-27 and fluticasone (bDNA assay). Format: cell-based. The note with it: for CXCL10 expression, factor alone: single factor alone (5 ng/ml TNF-α; 1 μg/ml linked IL-27; IFN-γ), FIG. 4. The method, then:
Primary human bronchial smooth muscle cells were cultured in the presence of 5 ng/ml TNF-αalone, 5 ng/ml TNF-α and 25 nM fluticasone; 1 μg/ml linked IL-27; 5 ng/ml TNF-α and 30 ng/ml IL-27; or 5 ng/ml TNF-α, 25 nM fluticasone, and 30 ng/ml IL-27. CXCL10 expression was determined by bDNA assay.

Assay [2] shares this test system. The assay is described as follows: Screen for factors inducing steroid resistance: CXCL10 and CD38 expression (bDNA) in bronchial smooth muscle cells with TNF-α and fluticasone. The class given is cell-based. The note with it: 5 ng/ml TNF-α, 25 nM fluticasone. As for the experimental part: In order to identify factors that induce a steroid-resistant state, an assay was set up as follows. Primary human bronchial smooth muscle cells were cultured in the presence of 5 ng/ml TNF-α and 25 nM fluticasone and a test substance. Steroid sensitivity was determined by detecting expression levels of CXCL10 (IP-10) and CD38 using a bDNA assay (QuantiGene® Plex 2.0; Panomics, Santa Clara, Calif.). Expression of each of those genes is suppressed by steroids, such as fluticasone. If a factor induces a steroid-insensitive state, expression of those genes should increase. Interferon family proteins were included as test substances as positive controls.
Using this assay, a library of over 4000 secreted and extracellular domain protein test substances were screened to identify test substances that induce a steroid-resistant state. The test substances were individually expressed in 293T cells and the cell supernatants used to test each substance in the assay.

Assay [3] concerns primary human bronchial epithelial cells. The assay is described as follows: CXCL9 (MIG) / CXCL10 induction in air-liquid interface bronchial epithelial cells (ELISA). Format: cell-based. The note with it: normal donor; with and without 25 nM fluticasone; FIG. 9. (ELISA stands for enzyme-linked immunosorbent assay.)
In assay [4] the test system is primary human bronchial smooth muscle cells. Description: Dose dependence of IL-27-induced steroid insensitivity (CXCL10/CD38 bDNA assay). Format: cell-based. The following applies: 5 ng/ml TNF-α, 25 nM fluticasone. The method, then: Primary human bronchial smooth muscle cells were cultured in the presence of 5 ng/ml TNF-α, 25 nM fluticasone, and increasing concentrations of linked IL-27 (Cat. No. 2526-IL; R&D Systems, Minneapolis, Minn.). CXCL10 and CD38 expression levels were determined by bDNA assay.

For assay [5] the test system is unchanged. The assay is described as follows: CXCL10 expression with TNF-α, fluticasone and IL-12 family cytokine supernatants (bDNA assay). The class given is cell-based. The following applies: 5 ng/ml TNF-α, 25 nM fluticasone, 293T supernatant; FIG. 5. As for the experimental part:
Primary human bronchial smooth muscle cells were cultured in the presence of 5 ng/ml TNF-α, 25 nM fluticasone, and a supernatant from 293T cells expressing IL-27 subunit EBI3 alone, IL-27 subunit p28 alone, IL-12 (comprised of p35 and p40), IL-35 (comprised of p35 and EBI3), IL-23 (comprised of p19 and p40), or IL-27 (comprised of p28 and EBI3). CXCL10 expression was determined by bDNA assay.

Assay [6] deals with primary bronchial smooth muscle cells (BSMCs). The assay is described as follows: WSX-1 expression in bronchial smooth muscle cells treated with factors (quantitative RT-PCR). The class given is cell-based, human. The note with it: 5 ng/ml TNF-α; FIG. 7. The method, then: The effect of various factors on WSX-1 expression was then determined in primary bronchial smooth muscle cells (BSMCs). The BSMCs were treated with 5 ng/ml TNF-α, 10 ng/ml IFN-γ, 5 ng/ml TNF-α and 10 ng/ml IFN-γ, or 5 ng/ml TNF-α and 10 ng/ml IFN-γ and 25 nM fluticasone. WSX-1 expression was determined by quantitative RT-PCR and normalized to RPL19.

A further assay has as its target T1, human IL-27 (Homo sapiens, UniProt Q14213+Q8NEV9).
T1 construct: made in house
T1 sequence (Q8NEV9 29-243): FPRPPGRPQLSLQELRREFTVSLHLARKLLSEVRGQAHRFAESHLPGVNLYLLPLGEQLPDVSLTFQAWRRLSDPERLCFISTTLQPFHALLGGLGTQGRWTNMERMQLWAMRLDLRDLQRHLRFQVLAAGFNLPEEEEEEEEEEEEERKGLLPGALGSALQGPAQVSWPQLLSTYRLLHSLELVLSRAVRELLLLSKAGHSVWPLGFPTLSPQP
T1 sequence (Q14213 21-229): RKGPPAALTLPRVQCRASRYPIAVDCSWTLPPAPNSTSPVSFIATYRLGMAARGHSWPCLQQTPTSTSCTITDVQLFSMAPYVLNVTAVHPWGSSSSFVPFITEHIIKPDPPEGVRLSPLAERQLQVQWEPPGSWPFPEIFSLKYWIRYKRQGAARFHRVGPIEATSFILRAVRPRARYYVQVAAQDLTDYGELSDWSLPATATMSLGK
The assay is described as follows: Inhibition of IL-27-induced CXCL10 expression in bronchial smooth muscle cells (ELISA). The class given is cell-based. The following applies: 0.2 to 20 μg/mL preincubated with 5 ng/mL linked or native human IL-27 and 5 ng/mL TNF-α; FIG. 11. The method, then:
Various concentrations of an IL-27 antagonist, WSX-1 ECD (0.2 to 20 μg/mL), were preincubated with 5 ng/mL of human IL-27 in the presence of 5 ng/mL of human TNF-α. Both linked and native human IL-27 were tested. Human linked IL-27 was obtained from R&D Systems and is produced with a linker between the p28 subunit and the EBI3 subunit. Native IL-27 was produced and purified in house by transfecting mammalian cells with separate vectors expressing each subunit and purifying the resulting p28/EBI3 (IL-27) heterodimer from the cell culture supernatant. Following the preincubation of WSX-1 ECD with IL-27 and TNF-α, the stimulus was added to primary human bronchial smooth muscle cells in culture. CXCL10 expression was determined by ELISA.
Various concentrations of a polyclonal antibody against human IL-27 (0.4 to 50 μg/mL; R&D Systems) were preincubated with 10 ng/mL of native human IL-27 in the presence of 5 ng/mL of human TNF-α. Following the preincubation of polyclonal antibody with IL-27 and TNF-α, the stimulus was added to primary human bronchial smooth muscle cells in culture. CXCL10 expression was determined by ELISA.

As to `C[C@@H]1C[C@H]2[C@@H]3C[C@H](F)C4=CC(=O)C=C[C@]4(C)[C@@]3(F)[C@@H](O)C[C@]2(C)[C@@]1(O)C(=O)SCF` [fluticasone, reference compound], the “effect on CXCL10 expression induced by IL-27 and TNF-α” value in assay [1] (5 ng/ml TNF-α, 25 nM fluticasone, 30 ng/ml IL-27) is given as “no effect”.
Turning to “IL-27: heterodimeric cytokine comprising the subunits p28 and EBI3; linked IL-27 from R&D Systems (Cat. No. 2526-IL)”, the “CXCL10 expression, in combination with TNF-α” value in assay [1] (5 ng/ml TNF-α and 30 ng/ml IL-27) is “very high CXCL10 expression”. Further, in assay [1], the “CXCL10 expression, factor alone” value is “did not affect expression of CXCL10”. Further, the “fold-change in CXCL10 expression (screen)” value in assay [2] (293T supernatant of test substance, FIG. 1) is reported as “positive data points”. The “effect on CD38 expression (two retests)” value in assay [2] (FIG. 2) is listed as “positive data points”. Besides, in assay [3], the “steroid sensitivity of IL-27 induction of CXCL10 expression” value is “steroid-insensitive at all concentrations of IL-27”. Also, the “steroid insensitivity (CXCL10 expression in the presence of fluticasone)” value in assay [4] (increasing concentrations of linked IL-27) is on record as “induced steroid-insensitivity in a dose-dependent manner”. Also, the “expression of CD38” value in assay [4] (increasing concentrations of linked IL-27, data not shown) is listed as “increased with increasing concentration”. In addition, in assay [4] (linked IL-27, FIG. 3, read-out: EC50 for CXCL10 expression in the presence of fluticasone), the EC50 turned out to be 372 pM. Also, in assay [5], the “synergistic increase of CXCL10 expression in the presence of TNF-α and fluticasone” value was “synergistically increased CXCL10 expression”.
For the molecule “IFN-γ: interferon family protein, positive control in the screen”, the “CXCL10 expression, factor alone” value in assay [1] is recorded as “did not induce CXCL10 expression”.
As for TNF-α, the “WSX-1 expression normalized to RPL19” value in assay [6] is recorded as “up-regulated”. The “CXCL10 expression, factor alone” value in assay [1] is given as “increased expression of CXCL10”.

B1: WSX-1 ECD: IL-27 antagonist; WSX-1 polypeptide that lacks the intracellular and transmembrane domains (protein, UniProt Q6UWB1 33-516, looked up)
extracellular domain: QGSAGPLQCYGVGPLGDLNCSWEPLGDLGAPSELHLQSQKYRSNKTQTVAVAAGRSWVAIPREQLTMSDKLLVWGTKAGQPLWPPVFVNLETQMKPNAPRLGPDVDFSEDDPLEATVHWAPPTWPSHKVLICQFHYRRCQEAAWTLLEPELKTIPLTPVEIQDLELATGYKVYGRCRMEKEEDLWGEWSPILSFQTPPSAPKDVWVSGNLCGTPGGEEPLLLWKAPGPCVQVSYKVWFWVGGRELSPEGITCCCSLIPSGAEWARVSAVNATSWEPLTNLSLVCLDSASAPRSVAVSSIAGSTELLVTWQPGPGEPLEHVVDWARDGDPLEKLNWVRLPPGNLSALLPGNFTVGVPYRITVTAVSASGLASASSVWGFREELAPLVGPTLWRLQDAPPGTPAIAWGEVPRHQLRGHLTHYTLCAQSGTSPSVCMNVSGNTQSVTLPDLPWGPCELWVTASTIAGQGPPGPILRLHLPDNTLRWK
modifications: extracellular domain
notes: IL-27 antagonist; WSX-1 polypeptide that lacks the intracellular and transmembrane domains
Turning to B1, the “inhibition of IL-27-induced expression of CXCL10” value with human IL-27 is “inhibited IL-27-induced expression of CXCL10”.
